Laboratory results published in paper PMC6984126, “Ficus deltoidea extract down-regulates protein tyrosine phosphatase 1B expression in a rat model of type 2 diabetes mellitus: a new insight into its antidiabetic mechanism” (Journal of Nutritional Science, 2020).
Marks after values point to notes of the source that are not given here.

Tests used:
[1] = test system: glucose 6-phosphatase (G6Pase) mRNA; test: Hepatic gene expression by quantitative real-time PCR: G6Pase; conditions: MET 150 mg/kg
Description: (§3) Total RNA was isolated from rat livers using an Rneasy Mini Kit according to the manufacturer's protocol (Qiagen). First-strand cDNA synthesis from 1 µg total RNA was done employing a reverse transcriptase kit and oligo(dT) (Thermo Scientific). PTP1B, phosphoenolpyruvate carboxykinase (PEPCK), glucose 6-phosphatase (G6Pase), GLUT2 (Slc2a2) and insulin receptor (INR) target genes were amplified by quantitative real-time-PCR using specific primers (Supplementary Table S1). cDNA was added to a Quantifast SYBR Green qPCR Master Mix (Qiagen) containing 30 pg/ml of each primer. […] The β-actin gene was amplified in the same reaction as a reference gene to normalise data. Relative gene expression was calculated using the Livak & Schmittgen method([42]).

GLUT2 = GLUT2 protein levels in liver and pancreas of diabetic rats; type: in vivo, Wistar rats; conditions: MET 150 mg/kg
Description: (§1) NA was dissolved in normal saline.
(§2) At the end of the 28th day, blood samples were withdrawn from the retro-orbital venous plexus under light ether anaesthesia into two sampling tubes, one containing Na-EDTA at day 28 post-medication for the estimation of Hb([22]). The second blood sample was centrifuged at 3500 rpm for 15 min to separate sera for the estimation of insulin level([23]). Other biochemical parameters such as alanine transaminase and aspartate transaminase activities in serum were measured([24]). Serum levels of total bilirubin([25]), total protein([26]), TAG([27]), total cholesterol([28]), HDL-cholesterol([29]) and LDL-cholesterol([30]) were measured using commercially available kits (Quimica Clinica). Preparation of pancreatic homogenate was done according to Mansour et al.([31]). The activities of superoxide dismutase (SOD), glutathione peroxidase (GPx) and catalase (CAT) in hepatic and pancreatic tissues were estimated([32]–[34]), respectively. Reduced glutathione (GSH)([35]), lipid peroxidation products were estimated by determining malondialdehyde (MDA) content in the hepatic and pancreatic tissue([36]) and GLUT2 was determined using commercial diagnostic kits (Chema Diagnostica)([37]).

[2] = test system: streptozotocin–nicotinamide-induced type 2 diabetic rats; test: Fasting blood glucose, insulin and Hb in STZ–NA diabetic rats; type: in vivo, Wistar rats; conditions: MET 150 mg/kg orally; 4 weeks
Description: as §1, §2

[3] = test system: streptozotocin–nicotinamide-induced type 2 diabetic rats; test: Pancreatic oxidative stress biomarkers in STZ–NA diabetic rats; type: in vivo, Wistar rats; conditions: MET 150 mg/kg
Description: as §1, §2

[4] = test system: phosphoenolpyruvate carboxykinase (PEPCK) mRNA; test: Hepatic gene expression by quantitative real-time PCR: PEPCK; conditions: MET 150 mg/kg
Description: as §3

GLUT2 gene (Slc2a2) mRNA = test: Hepatic gene expression by quantitative real-time PCR: Slc2a2; conditions: liver mRNA; MET 150 mg/kg
Description: as §3

[5] = test system: insulin receptor (INR) mRNA; test: Hepatic gene expression by quantitative real-time PCR: insulin receptor; conditions: MET 150 mg/kg
Description: as §3

PTP1B mRNA = test: Hepatic gene expression by quantitative real-time PCR: PTP1B; conditions: liver mRNA; MET 150 mg/kg
Description: as §3

[6] = test system: streptozotocin–nicotinamide-induced type 2 diabetic rats; test: Serum hepatic markers, bilirubin and total protein in STZ–NA diabetic rats; type: in vivo, Wistar rats; conditions: MET 150 mg/kg orally, 4 weeks
Description: as §1, §2

SMILES | melting point [°C] | Expression of G6Pase in the liver [1] | GLUT2 in the liver compared with the diabetic control (GLUT2) | GLUT2 in the pancreas compared with the diabetic control (GLUT2) | Hb [2] | Effect on MDA level in the pancreas of diabetic rats [3] | Increase in pancreatic GPx compared with diabetic control rats [3] [%] | Increase in pancreatic GSH content [3] [%] | Expression of PEPCK in the liver [4] | Slc2a2 expression, % of the normal level (GLUT2 gene (Slc2a2) mRNA) [%] | Effect of STZ on hepatic insulin receptor mRNA levels [5] | PTP1B expression level, % of the levels in the diabetic group (PTP1B mRNA) | Total bilirubin [6] | Total protein [6]
CC1(C)CC[C@]2(C)CC[C@]3(C)C(=C[C@H](O)C4[C@@]5(C)CC[C@H](O)[C@@](C)(C(=O)O)C5CC[C@]43C)C2C1 (stereo partly drawn) [Compound F3, 3β,11β-dihydroxyolean-12-en-23-oic acid] | 308 to 309 | – | – | – | – | – | – | – | – | – | – | – | – | –
CN(C)C(=N)N=C(N)N [MET, metformin] | – | decreased expression | significantly increased | significantly increased | 135† g/l | did not significantly affect | 63 | 46 | decreased expression | 92 | reversed | approximately 75% | 4† mg/l | 114* g/l
